Data: patent publication US9994644B2, “mAB 2 anti-Met antibody” (Agency for Science, Technology and Research, priority 2013, dated 2018)

Assays:
mAb 2 = assay: Alanine scan ELISA and mAb 2 titration against peptides; format: binding, murine; conditions: for mAb 2 binding to alanine-substituted peptide: 0.05 μg/mL mAb 2, 1 mM DTT; for Increase mAb 2 binding in ascending order: titration of purified mAb 2 against peptides, 1 = least binding
Protocol: Variations of peptides O28 and O29, where each amino acid residue was sequentially substituted for an alanine residue, were synthesised. Streptavidin-coated plates (Pierce/Thermo Scientific, #15520) were blocked with 3% BSA/PBS at room temperature. The peptides were dissolved in DMSO and stored according to manufacturer's recommendation. Streptavidin-coated plates were coated with each peptide (5 μg/mL) overnight at room temperature. Wells were washed before hybridoma supernatant or purified monoclonal antibody was added to the each well. HRP-conjugated anti-mouse antibody was added to detect bound monoclonal antibodies. ELISA substrate (Bio-Rad #172-1067) solution was prepared freshly according to the manufacturer's instructions and added to the wells. Colour change was monitored by eye and the reaction was stopped by adding 100 mM sulphuric acid. Absorbance was read at 450 nm in a microplate reader (SPECTRAmax PLUS^384, Molecular Device, U.S.A.). The crystal structure of c-Met extracellular domain, accession number 1 SHY, was obtained from Protein Data Base (PDB). Computer imaging of the epitopes were analysed by PyMol (DeLano Scientific LLC, U.S.A.) software.
To identify residues within peptides O28 and O29 that are crucial for mAb 2-Met interaction, an alanine scan was performed. Variations of peptide O28 and O29, where each amino acid residue was sequentially substituted for an alanine residue, were synthesised (Table 3). Peptides P1 to P16 (with the SEQ II) NO: […]) and P17 to P31. (with the SEQ ID NO: 40 to 56) were derived from the original peptide O28 and O29 respectively. Using the same ELISA-based assay described above, synthesised peptides were added to streptavidin-coated wells and purified mAb 2 was added to each peptide containing well. mAb 2 binding was determined by absorbance reading at […]. […] Peptide O27, peptide O1 and no peptide were used as negative controls.
The substituted amino acid residues in these peptides are thus involved in mAb 2 epitope. […] This is supported by the loss of mAb 2 binding due to the substitution of proline by alanine in peptides P14, P25 and P10. To determine which residues play a more crucial role in mAb 2 binding, mAb 2 was titrated against the peptides (FIG. 12B). […] These residues are not consecutive residues.

c-Met [1] = target: c-Met (Homo sapiens, UniProt P08581); conditions: background statement; cited from earlier work
Chain of c-Met (Homo sapiens, UniProt P08581) (P08581 25-307): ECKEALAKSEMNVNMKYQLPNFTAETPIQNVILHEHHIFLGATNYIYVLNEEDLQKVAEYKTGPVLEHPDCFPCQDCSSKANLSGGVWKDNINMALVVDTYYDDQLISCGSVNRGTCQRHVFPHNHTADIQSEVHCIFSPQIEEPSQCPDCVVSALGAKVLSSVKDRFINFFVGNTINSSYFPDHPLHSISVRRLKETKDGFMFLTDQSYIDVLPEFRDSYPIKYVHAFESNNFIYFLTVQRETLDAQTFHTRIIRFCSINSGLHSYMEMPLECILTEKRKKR
Chain of c-Met (Homo sapiens, UniProt P08581) (P08581 308-1390): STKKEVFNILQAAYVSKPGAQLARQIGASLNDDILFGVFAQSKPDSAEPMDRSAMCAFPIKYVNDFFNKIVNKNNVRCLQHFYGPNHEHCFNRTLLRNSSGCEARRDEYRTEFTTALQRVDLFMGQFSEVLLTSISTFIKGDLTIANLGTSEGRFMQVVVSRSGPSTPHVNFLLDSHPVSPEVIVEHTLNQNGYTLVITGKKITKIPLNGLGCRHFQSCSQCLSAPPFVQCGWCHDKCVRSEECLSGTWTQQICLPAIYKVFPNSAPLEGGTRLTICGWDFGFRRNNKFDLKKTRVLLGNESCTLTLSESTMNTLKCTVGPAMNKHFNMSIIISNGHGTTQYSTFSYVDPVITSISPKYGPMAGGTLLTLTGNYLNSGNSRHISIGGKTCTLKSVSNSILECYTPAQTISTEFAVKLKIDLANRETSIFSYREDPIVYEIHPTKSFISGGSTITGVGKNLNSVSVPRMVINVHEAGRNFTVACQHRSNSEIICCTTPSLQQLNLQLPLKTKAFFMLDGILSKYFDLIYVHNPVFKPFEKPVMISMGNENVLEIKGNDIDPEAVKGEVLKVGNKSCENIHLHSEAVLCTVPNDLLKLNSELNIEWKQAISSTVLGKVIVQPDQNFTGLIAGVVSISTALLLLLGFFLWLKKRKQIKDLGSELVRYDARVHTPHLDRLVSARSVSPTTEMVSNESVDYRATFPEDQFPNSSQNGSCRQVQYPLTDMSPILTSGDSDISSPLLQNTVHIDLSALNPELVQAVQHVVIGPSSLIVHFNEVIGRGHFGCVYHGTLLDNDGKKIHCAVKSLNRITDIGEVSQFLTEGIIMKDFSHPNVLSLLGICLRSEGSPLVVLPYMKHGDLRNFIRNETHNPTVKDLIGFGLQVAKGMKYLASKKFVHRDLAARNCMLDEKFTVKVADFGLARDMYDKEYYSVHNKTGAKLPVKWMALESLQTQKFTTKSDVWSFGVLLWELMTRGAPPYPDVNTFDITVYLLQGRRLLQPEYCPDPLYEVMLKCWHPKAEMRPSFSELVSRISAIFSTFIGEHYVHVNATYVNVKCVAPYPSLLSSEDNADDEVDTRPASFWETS

HaCaT cells = assay: Cell scatter assay; format: cell-based; conditions: 10 ng/mL HGF, controls
Protocol: Cell scattering is one of the biological hallmarks of c-Met activation. Agonist bivalent monoclonal antibodies targeting c-Met would activate c-Met and cause cells to become motile and disperse. Here, we examine the effects of purified anti-α-chain c-Met monoclonal antibodies on cell scatter. HaCaT cells were seeded at low density and allowed to grow until colonies formed. Cells were serum-starved for 24 hrs before incubating with 1 μg/mL monoclonal antibodies for 24 hrs. Cells were then fixed and stained with crystal violet. As a control, cell scatter of HaCaT cells was induced with 10 ng/mL of HGF (FIG. 5). […] Anti-HGF antibody and SU11274 were used as controls. SU11274 is a small molecule inhibitor of c-Met.
100-200 HaCaT cells were seeded in 24-well plates and allowed to grow until small colonies were formed (approximately 7 days). Cells were serum-starved for 24 hrs. Cells were incubated with purified monoclonal antibodies (1 μg/mL) for 24 hrs before rinsing twice in cold PBS and fixing in ice-cold methanol. Cells were then stained in 1% crystal-violet (Sigma-Aldrich) solution. Cell staining was observed using Zeiss Axiovert 25 inverted microscope and pictures were taken using a Canon EOS 1000 D camera.

SNU-5 cells = assay: CellTiter-Glo luminescent cell viability assay; format: cell-based, human; conditions: SNU-5, 72 hrs; mAb 10 μg/mL, SU11274 5 μM
Protocol: (§1) In order to determine if these antibodies have any physiological effects on tumour cells, 10 μg/mL of mAb was added to SNU-5 cells. […] This indicates SU11274 mode of mechanism is by activation of caspase which in turn result in apoptosis of SNU-5 tumour cells.
(§2) CellTiter-Glo® luminescent cell viability assay and Caspase-Glo® 3/7 Assay (Promega, U.S.A.) were used to determine cell viability and caspase activation respectively. SNU-5 cells (1×10^5 cells) were seeded in each 96-well and treated for 72 hrs before analysis. Cell viability and caspase activation were performed according to manufacturer's protocol. Luminescence was read using the EnVision plate reader (PerkinElmer, U.S.A.).

[2] = system: caspase activation in SNU-5 cells; assay: Caspase-Glo 3/7 caspase activation assay; format: cell-based, human; conditions: SNU-5, 72 hrs; mAb 10 μg/mL, SU11274 5 μM
Protocol: as §1, §2

c-Met [3] = conditions: background statement; cited from earlier work

| Molecule | mAb 2 binding to alanine-substituted peptide (mAb 2) | Increase mAb 2 binding in ascending order (mAb 2) | also measured |
| --- | --- | --- | --- |
| CIFSPQIEAPSQCPD [P9, alanine-substituted variant of peptide O28] | failed to bind | 4 |  |
| CIFSPQAEEPSQCPD [P7, alanine-substituted variant of peptide O28] | failed to bind | 8 |  |
| AIFSPQIEEPSQCPD [P1, alanine-substituted variant of peptide O28] | failed to bind |  |  |
| Cc1[nH]c(/C=C2\C(=O)Nc3ccc(S(=O)(=O)Cc4c(Cl)cccc4Cl)cc32)c(C)c1C(=O)N1CCC[C@@H]1CN1CCCC1 [PHA-665752] |  |  | inhibition of c-Met activation (c-Met [1]): extremely successful |
| COc1cc2c(Oc3ccc(-c4cnc(Cc5ccccc5)n(C)c4=O)cc3F)ccnc2cc1OCCCN1CCOCC1 [AM7] |  |  | inhibition of c-Met activation (c-Met [1]): extremely successful |
| Cc1[nH]c(/C=C2\C(=O)Nc3ccc(S(=O)(=O)N(C)c4cccc(Cl)c4)cc32)c(C)c1C(=O)N1CCN(C)CC1 [SU11274] |  |  | HGF-induced cell scatter (HaCaT cells): remained circular; cell viability (SNU-5 cells): significant reduction; caspase activation [2]: high caspase activation; inhibition of c-Met activation (c-Met [1]): extremely successful; activity against specific c-Met mutations (c-Met [3]): ineffective |
| CIFSPQIAEPSQCPD [P8, alanine-substituted variant of peptide O28] | failed to bind |  |  |
| CIFSPQIEEPSQCPD [O28, pepscan peptide of human c-Met α-chain] |  | 11 |  |
| QIEEPSQCPDCVVSA [O29, pepscan peptide of human c-Met α-chain] |  | 11 |  |
| MetMab: monovalent chimeric antibody targeted against c-Met (antibody, chains of the INN, looked up, V domains shown, one-armed monovalent, monovalent chimeric antibody targeted against c-Met) VH: EVQLVESGGGLVQPGGSLRLSCAASGYTFTSYWLHWVRQAPGKGLEWVGMIDPSNSDTRFNPNFKDRFTISADTSKNTAYLQMNSLRAEDTAVYYCATYRSYVTPLDYWGQGTLVTVSS VL: DIQMTQSPSSLSASVGDRVTITCKSSQSLLYTSSQKNYLAWYQQKPGKAPKLLIYWASTRESGVPSRFSGSGSGTDFTLTISSLQPEDFATYYCQQYYAYPWTFGQGTKVEIK |  |  | agonist/antagonist activity towards c-Met (c-Met [1]): antagonist |

Continued, in another order:

| mAb 2 binding to alanine-substituted peptide (mAb 2) | Increase mAb 2 binding in ascending order (mAb 2) | Molecule | also measured |
| --- | --- | --- | --- |
| failed to bind | 6 | QIAEPSQCPDCVVSA [P19, alanine-substituted variant of peptide O29] |  |
| failed to bind | 10 | CIFSPQIEEPSQCPA [P15, alanine-substituted variant of peptide O28] |  |
| failed to bind | 5 | AIEEPSQCPDCVVSA [P17, alanine-substituted variant of peptide O29] |  |
| failed to bind |  | CIFSPQIEEPSQCAD [P14, alanine-substituted variant of peptide O28] |  |
| failed to bind | 3 | QIEEPSQCADCVVSA [P25, alanine-substituted variant of peptide O29] |  |
| failed to bind | 9 | QIEAPSQCPDCVVSA [P20, alanine-substituted variant of peptide O29] |  |
| failed to bind | 7 | CIFSPQIEEASQCPD [P10, alanine-substituted variant of peptide O28] |  |
